Values joined by “and” are separate entries in the source; they are usually repeats but may differ in a detail not shown here. Identical values can stand only once.
Test system: ASPS-1 complex tumor spheroids, viability
Assay: Anticancer human tumor ASPS-1 cell line growth inhibition;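 note: spheroids exposed to agents for 7 days after 3 days of growth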;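 for viability, T/C: 100% = DMSO vehicle treated spheroids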
Settings: for viability, T/C: stronger effect = lower value; active = viability on the fitted dose curve at most 10% of control; inactive = the rest
Source text: Multicellular complex tumor spheroid response to DNA repair inhibitors in combination with DNA-damaging drugs
This study explores the anticancer activities of DNA-damaging drugs and inhibitors of DNA damage repair, both as single agents and in combinations. Complex tumor spheroids comprised of malignant cells, endothelial cells and mesenchymal stem cells served as an in vitro model for human solid tumors. This model system incorporates physiologically relevant features and patient-derived or established malignant cell lines with clinically relevant genetic alterations from many tumor types. Twenty-six patient-derived or established malignant cell lines were evaluated representing sarcoma, melanoma, small cell lung cancer (SCLC), non-small cell lung cancer (NSCLC), as well as bladder, ovarian and pancreatic cancers. The concentration ranges selected for each drug and investigational agent were based upon clinically achievable concentrations if the clinical Cmax of the agent was known.
Compounds. The drugs and compounds olaparib (NSC753686), talazoparib (NSC767125), berzosertib (NSC777718), elimusertib (NSC800525), nedisertib (NSC802822), VX-984 (NSC792969), AZD-1390 (NSC803789), temozolomide (NSC362856), topotecan (NSC609699), trabectedin (NSC813783), staurosporine (NSC755774), and gemcitabine (NSC613327) were obtained from the National Cancer Institute (NCI) Developmental Therapeutics Program Chemical Repository. The FDA-approved anticancer drug set is available from the Developmental Therapeutics Program at https://dtp.cancer.gov/organization/dscb/obtaining/available_plates.htm. […] The stock solutions were prepared in dimethyl sulfoxide (DMSO, Sigma-Aldrich, St. Louis, MO, cat. D2650) at 400-fold the tested concentration and stored at -70 degrees C. Prior to their use, the stock solutions were diluted in fresh medium and the final DMSO concentration in the assay was 0.25% (v/v). All drugs and investigational agents were tested over a range starting from a high concentration at or near the clinical Cmax and decreasing in half-log increments. If the clinical Cmax for an agent had not been determined, the highest concentration tested was 10 microM.
Cell Lines. The patient-derived cancer cell (PDC) lines: 156681-154-R-J1-PDC, 283228-195-R-J1-PDC, 287954-098-R-J1-PDC, 292921-168-R-J2-PDC, 349418-098-R-PDC, 425362-245-T-J1-PDC, 556581-035-R-J1-PDC, and BL0293-F563-PDC were received from the NCI Patient-Derived Models Repository (PDMR, https://pdmr.cancer.gov). The established cell lines HS-SY-2 (RRID:CVCL_8719), MPNST, and SYO-1 (RRID:CVCL_7146) were obtained from the Sloan Kettering Institute. The alveolar soft parts sarcoma cell line ASPS-1 (RRID:CVCL_S738) was established at the NCI and grown from internal seed stocks. The following established cell lines were purchased from the American Type Culture Collection (ATCC, Manassas, VA): G-401 (ATCC, cat. CRL-1441, RRID:CVCL_0270), SW982 (ATCC, cat. HTB-93, RRID:CVCL_1734), VA-ES-BJ (ATCC, cat. CRL-2138, RRID:CVCL_1785), NCI-H719 (ATCC, cat. CRL-5837, RRID:CVCL_1582), NCI-H196 (ATCC, cat. CRL-5823, RRID:CVCL_1509), NCI-H841 (ATCC, cat. CRL-5845, RRID:CVCL_1595), NCI-H1618 (ATCC, cat. CRL-5879, RRID:CVCL_1480), NCI-H1876 (ATCC, cat. CRL-5902, RRID:CVCL_1503), DMS 114 (ATCC, cat. CRL-2066; RRID:CVCL_1174), NCI-H211 (ATCC, cat. CRL-5824; RRID:CVCL_1529), and SW 1271 (ATCC, cat. CRL-2177, RRID:CVCL_1716). The small cell lung cancer cell line COR-L88 was purchased from Sigma-Aldrich (cat. 92031917-1VL, RRID:CVCL_1141). The non-small cell lung cancer cell lines NCI-H226 (RRID:CVCL_1544) and NCI-H322M (RRID:CVCL_1557) were established at the NCI and grown from internal seed stocks. Pooled donor human umbilical vein endothelial cells (HUVEC, Lonza, cat. CC-2519) and human mesenchymal stem cells (hMSC, Lonza, cat. PT-2501) were purchased from Lonza (Walkersville, MD).
Cell Culture. All cells were maintained in an incubator at 37 degrees C and 5% CO2 with 95% humidity. […]

[1] = curve of first compound, second compound 0.003 µM

COc1cc(C)[nH]c(=O)c1CN1CCc2c(Cl)cc(C(OC)C3COC3)c(Cl)c2C1=O (configuration not stated) + COc1cc2c(cc1O)CCNC21CSC2c3c(OC(C)=O)c(C)c4c(c3C(COC1=O)N1C(O)C3Cc5cc(C)c(OC)c(O)c5C(C21)N3C)OCO4
< 0.0316 µM: IC50 [1]
inactive: viability, T/C (second compound 30 pM, first compound 0.0316 µM) 107% | viability, T/C (second compound 30 pM, first compound 0.1 µM) 103% | viability, T/C (second compound 30 pM, first compound 0.316 µM) 100% | viability, T/C (second compound 30 pM, first compound 1 µM) 108% | viability, T/C (second compound 30 pM, first compound 3.16 µM) 102% | viability, T/C (second compound 30 pM, first compound 10 µM) 101% | viability, T/C (second compound 94.9 pM, first compound 0.0316 µM) 98.7% | viability, T/C (second compound 94.9 pM, first compound 0.1 µM) 103% | viability, T/C (second compound 94.9 pM, first compound 0.316 µM) 103% | viability, T/C (second compound 94.9 pM, first compound 1 µM) 101% | viability, T/C (second compound 94.9 pM, first compound 3.16 µM) 100% | viability, T/C (second compound 94.9 pM, first compound 10 µM) 99.2% | viability, T/C (second compound 0.0003 µM, first compound 0.0316 µM) 98% | viability, T/C (second compound 0.0003 µM, first compound 0.1 µM) 102% | viability, T/C (second compound 0.0003 µM, first compound 0.316 µM) 98.7% | viability, T/C (second compound 0.0003 µM, first compound 1 µM) 95% | viability, T/C (second compound 0.0003 µM, first compound 3.16 µM) 96.1% | viability, T/C (second compound 0.0003 µM, first compound 10 µM) 93.2% | viability, T/C (second compound 0.000949 µM, first compound 0.0316 µM) 77.7% | viability, T/C (second compound 0.000949 µM, first compound 0.1 µM) 73.6% | viability, T/C (second compound 0.000949 µM, first compound 0.316 µM) 72.1% | viability, T/C (second compound 0.000949 µM, first compound 1 µM) 64.7% | viability, T/C (second compound 0.000949 µM, first compound 3.16 µM) 68.2% | viability, T/C (second compound 0.000949 µM, first compound 10 µM) 56% | viability, T/C (second compound 0.003 µM, first compound 0.0316 µM) 19.5% | viability, T/C (second compound 0.003 µM, first compound 0.1 µM) 21.6% | viability, T/C (second compound 0.003 µM, first compound 0.316 µM) 23.1% | viability, T/C (second compound 0.003 µM, first compound 1 µM) 18.3% | viability, T/C (second compound 0.003 µM, first compound 3.16 µM) 19% | viability, T/C (second compound 0.003 µM, first compound 10 µM) 10.5%
> 10 µM: IC50 (curve of first compound, second compound 30 pM) | IC50 (curve of first compound, second compound 94.9 pM) | IC50 (curve of first compound, second compound 0.0003 µM) | IC50 (curve of first compound, second compound 0.000949 µM)

Cn1ncnc1[C@H]1c2n[nH]c(=O)c3cc(F)cc(c23)N[C@@H]1c1ccc(F)cc1 + CC[C@@]1(O)C(=O)OCc2c1cc1n(c2=O)Cc2cc3c(CN(C)C)c(O)ccc3nc2-1
> 3 µM: IC50 [1] | IC50 (curve of first compound, second compound 0.00949 µM)
< 0.00949 µM: IC50 (curve of first compound, second compound 0.0949 µM) | IC50 (curve of first compound, second compound 0.3 µM)
inactive: viability, T/C (second compound 0.003 µM, first compound 0.00949 µM) 97.5% | viability, T/C (second compound 0.003 µM, first compound 0.03 µM) 98.3% | viability, T/C (second compound 0.003 µM, first compound 0.0949 µM) 101% | viability, T/C (second compound 0.003 µM, first compound 0.3 µM) 98.4% | viability, T/C (second compound 0.003 µM, first compound 0.949 µM) 98.8% | viability, T/C (second compound 0.003 µM, first compound 3 µM) 76.5% | viability, T/C (second compound 0.00949 µM, first compound 0.00949 µM) 103% | viability, T/C (second compound 0.00949 µM, first compound 0.03 µM) 92% | viability, T/C (second compound 0.00949 µM, first compound 0.0949 µM) 100% | viability, T/C (second compound 0.00949 µM, first compound 0.3 µM) 95.7% | viability, T/C (second compound 0.00949 µM, first compound 0.949 µM) 86.6% | viability, T/C (second compound 0.00949 µM, first compound 3 µM) 69.5% | viability, T/C (second compound 0.03 µM, first compound 0.00949 µM) 78.4% | viability, T/C (second compound 0.03 µM, first compound 0.03 µM) 75.9% | viability, T/C (second compound 0.03 µM, first compound 0.0949 µM) 67.4% | viability, T/C (second compound 0.03 µM, first compound 0.3 µM) 61.4% | viability, T/C (second compound 0.03 µM, first compound 0.949 µM) 56.6% | viability, T/C (second compound 0.03 µM, first compound 3 µM) 49% | viability, T/C (second compound 0.0949 µM, first compound 0.00949 µM) 47% | viability, T/C (second compound 0.0949 µM, first compound 0.03 µM) 40.9% | viability, T/C (second compound 0.0949 µM, first compound 0.0949 µM) 43.5% | viability, T/C (second compound 0.0949 µM, first compound 0.3 µM) 38.2% | viability, T/C (second compound 0.0949 µM, first compound 0.949 µM) 38% | viability, T/C (second compound 0.0949 µM, first compound 3 µM) 34.1% | viability, T/C (second compound 0.3 µM, first compound 0.00949 µM) 46.9% | viability, T/C (second compound 0.3 µM, first compound 0.03 µM) 41.9% | viability, T/C (second compound 0.3 µM, first compound 0.0949 µM) 40% | viability, T/C (second compound 0.3 µM, first compound 0.3 µM) 41.3% | viability, T/C (second compound 0.3 µM, first compound 0.949 µM) 40.1% | viability, T/C (second compound 0.3 µM, first compound 3 µM) 39%
2.61 µM: IC50 (curve of first compound, second compound 0.03 µM)

Cc1cc(C)c(CNC(=O)c2cc(-c3ccc(CN4CCOCC4)cc3)cc3c2cnn3C2CCCC2)c(=O)[nH]1
inactive: viability, T/C (compound 0.0316 µM) 103% and 100% and 101% | viability, T/C (compound 0.1 µM) 103% (2×) and 102% | viability, T/C (compound 0.316 µM) 103% and 92.5% and 99.4% | viability, T/C (compound 1 µM) 105% and 93.1% and 101% | viability, T/C (compound 3.16 µM) 96.7% and 94.2% and 93.3% | viability, T/C (compound 10 µM) 79.3% and 80.4% and 80.8%
> 10 µM: IC50 (curve of compound)

— PubChem BioAssay AID1845200 (Molecular Pharmacology Branch, DTP, NCI, 2023)
